Tested on: d(AAGGG)4 (DNA, G4) AAGGGAAGGGAAGGGAAGGG
Experiment: UV-vis absorption titration (Soret band); CD
Conditions: 100 mM KCl; 10 mM Tris-HCl, 0.1 mM EDTA, pH 7.4; 7 μM TMPyP4; 68% hypochromicity, 16 nm red shift

binding: yes
Compound: C[n+]1ccc(-c2c3nc(c(-c4cc[n+](C)cc4)c4ccc([nH]4)c(-c4cc[n+](C)cc4)c4nc(c(-c5cc[n+](C)cc5)c5ccc2[nH]5)C=C4)C=C3)cc1

From article PMC10563062 (2023)
